# Laboratory results reported in paper PMC11713942 (Therapeutic Advances in Infectious Disease, 2025).
# Tests used:
# [1] = cited from earlier work
# [2] = Protocol: The monocentric, prospective, cohort study was approved by the local ethics committee. […] All participants signed an informed consent form before the initiation of treatment and data/biological samples collection. […] Due to the COVID-19 pandemic, we could not completely fulfil the study design, and patients were treated with either 8–10 mg/kg (group A) or 11–12 mg/kg (group B), as per routine clinical treatment. […] Microbiological failure was defined by persistent or breakthrough infection during IE treatment.
# The occurrence of CK elevation above the normal value (>170 mU/mL) and eosinophilic pneumonia was evaluated.
# [3] = tested on: Staphylococcus spp. infective endocarditis; test: Microbiological and clinical response of Staphylococcus spp. infective endocarditis; type: in vivo, human; details: all patients, both dose groups
# Protocol: The monocentric, prospective, cohort study was approved by the local ethics committee. […] All participants signed an informed consent form before the initiation of treatment and data/biological samples collection. […] Due to the COVID-19 pandemic, we could not completely fulfil the study design, and patients were treated with either 8–10 mg/kg (group A) or 11–12 mg/kg (group B), as per routine clinical treatment. In six patients, PK data relative to both doses are available, as per the initial protocol. […] Microbiological failure was defined by persistent or breakthrough infection during IE treatment.
# [4] = multilevel linear mixed model
# Description: In any complex structure, we can identify atomic units (in this case curves) and higher level unit (in this case patients). Treating patients as a random effect will correct standard errors and furnish an estimate of between-group variance. Introducing some covariate in a fixed part of the models helps to explain and so reduce unexplained between-group variance. Results are expressed as beta coefficient with their 95% confidence interval (95% CI) and presented with term-specific p values; the beta coefficient represents the mean variation of outcomes for unit change of quantitative predictors or between levels of categorical or ordinal predictors.
# AUC0–24 determined on the fifth day of treatment, when the steady-state conditions were achieved, were calculated and compared between the two different groups of patients.
# clinical = details: human, in vivo; for half-life: Daptomycin t1/2 (elimination half-life), IV, 0.693/kel, median (IQR)
# Protocol: Tubes were centrifuged at 10,400 rpm for at least 10 min at room temperature; separated plasma was then dispensed into polypropylene-labelled tubes and stored at −80°C until the bioanalysis was carried out. […] QcH (80 µg/mL), QcM (40 µg/mL) and QcL (4 µg/mL), by serial dilution in plasma. […] Just before the analysis, patient plasma samples were thawed, and calibrators and quality controls were prepared fresh in the same matrix. Each sample was processed by protein precipitation: 50 µL of plasma was prepared in pre-labelled Eppendorf tubes®. […] In total, 200 µL of the supernatant was transferred to HPLC vials, and 5 µL was injected into the chromatographic column. The HPLC system used was a Thermo Scientific quaternary pump® (Accela pump; Thermo Fisher Scientific, San Francisco, CA, USA) interfaced with an autosampler (Accela autosampler). […] From 3.10 to 4.50 min, the column was again equilibrated to the initial conditions. […] Xcalibur 2.07 and Lcquan2.5.6 software from Thermo Scientific (San Jose, CA, USA) were utilized for the LC-MS/MS system control, data acquisition and data analysis. Calibration curves were generated using weighted (1/x^2) linear regression curves.
compound,measurement,setting,value
"CCCCCCCCCC(=O)N[C@@H](Cc1c[nH]c2ccccc12)C(=O)N[C@H](CC(N)=O)C(=O)N[C@@H](CC(=O)O)C(=O)N[C@@H]1C(=O)NCC(=O)N[C@@H](CCCN)C(=O)N[C@@H](CC(=O)O)C(=O)N[C@H](C)C(=O)N[C@@H](CC(=O)O)C(=O)NCC(=O)N[C@H](CO)C(=O)N[C@@H]([C@H](C)CC(=O)O)C(=O)N[C@@H](CC(=O)c2ccccc2N)C(=O)O[C@@H]1C [Daptomycin, daptomycin]",Increase of systemic exposure in elderly individuals (>75 years) compared with younger (18–30 years),[1],58%
same,Eosinophilic pneumonia during treatment,[2]; 8–12 mg/kg daily,none of the patients
same,CK increase during treatment,[2]; in vivo,none of the patients
same,Breakthrough infections while on treatment,[3],without evidence of breakthrough infections
same,Microbiologic response,[3],All patients displayed a microbiologic response
same,Survival at 30 days,[3],All patients were alive
same,Effect of gender on AUC0–24,[4],gender did not affect the results
same,"Beta coefficient, association of AUC0–24 with dose group","[4]; 95% CI 64–483, p = 0.010",274
same,MIC,Staphylococcus spp.,< 0.5 µg/mL
same,Dose linearity of pharmacokinetics,clinical,linear daptomycin pharmacokinetics
same,clearance,"clinical; iv, Daptomycin CL",8.17 mL/min
same,half-life,"clinical; iv, group A 8–10 mg/kg daily, 15 patients",1010 min
same,half-life,"clinical; iv, group B 11–12 mg/kg daily, 14 patients",906 min
